Source: PMC5372246, “Co-production of hydrogen and ethanol from glucose in Escherichia coli by activation of pentose-phosphate pathway through deletion of phosphoglucose isomerase (pgi) and overexpression of glucose-6-phosphate dehydrogenase (zwf) and 6-phosphogluconate dehydrogenase (gnd)” (Biotechnology for Biofuels, 2017)

Columns and labels:
[1] = target: T1, Zwf (ZE), glucose-6-phosphate dehydrogenase (Escherichia coli, UniProt P0AC53); assay: inhibition of purified enzyme, NADPH formation at […] nm; type: biochemical
T1 construct: full-length, C-terminal His-tag, Ni-NTA purified from E. coli, 55 kDa on SDS-PAGE
T1 sequence (P0AC53 whole entry): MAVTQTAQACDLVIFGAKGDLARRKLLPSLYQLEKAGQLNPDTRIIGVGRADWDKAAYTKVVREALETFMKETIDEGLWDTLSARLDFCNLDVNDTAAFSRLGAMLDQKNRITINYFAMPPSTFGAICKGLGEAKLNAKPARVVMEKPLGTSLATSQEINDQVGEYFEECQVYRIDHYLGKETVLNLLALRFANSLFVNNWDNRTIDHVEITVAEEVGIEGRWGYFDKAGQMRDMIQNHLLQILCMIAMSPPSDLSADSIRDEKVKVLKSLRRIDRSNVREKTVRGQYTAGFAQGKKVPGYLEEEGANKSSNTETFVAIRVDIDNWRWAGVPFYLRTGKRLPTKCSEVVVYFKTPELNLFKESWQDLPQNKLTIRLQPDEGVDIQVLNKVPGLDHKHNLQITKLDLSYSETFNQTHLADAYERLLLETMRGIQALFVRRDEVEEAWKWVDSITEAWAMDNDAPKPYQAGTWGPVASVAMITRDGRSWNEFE

[2] = target: T2, Gnd (GE), 6-phosphogluconate dehydrogenase (Escherichia coli, UniProt P00350); assay: as above; type: biochemical
T2 construct: full-length, C-terminal His-tag, Ni-NTA purified from E. coli, 51 kDa on SDS-PAGE
T2 sequence (P00350 1-468): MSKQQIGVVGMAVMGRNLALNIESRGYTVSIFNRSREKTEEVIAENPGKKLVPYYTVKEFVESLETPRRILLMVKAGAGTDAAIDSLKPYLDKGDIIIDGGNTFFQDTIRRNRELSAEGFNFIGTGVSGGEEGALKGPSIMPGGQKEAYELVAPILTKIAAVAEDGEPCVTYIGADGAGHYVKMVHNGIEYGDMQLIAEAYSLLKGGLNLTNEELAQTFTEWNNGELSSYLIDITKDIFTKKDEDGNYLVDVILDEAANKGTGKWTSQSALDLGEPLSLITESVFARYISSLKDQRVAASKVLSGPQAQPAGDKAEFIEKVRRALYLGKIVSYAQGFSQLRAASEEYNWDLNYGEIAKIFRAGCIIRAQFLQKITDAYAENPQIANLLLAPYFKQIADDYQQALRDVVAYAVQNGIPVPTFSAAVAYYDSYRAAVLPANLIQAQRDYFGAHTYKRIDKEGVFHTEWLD

NC(=O)C1=CN([C@@H]2O[C@H](COP(=O)(O)OP(=O)(O)OC[C@H]3O[C@@H](n4cnc5c(N)ncnc54)[C@H](OP(=O)(O)O)[C@@H]3O)[C@@H](O)[C@H]2O)C=CC1 [NADPH]
Ki [1]: ~40 µM | Ki [2]: ~40 µM
